What was measured:
L1210 cells = experiment: Proliferation test (MTT assay), L1210; format: cell-based, murine; conditions: 72 hours
Procedure: (§1) The cytotoxic activity of the compounds according to the invention was measured in two different in vitro test systems.
(§2) 1. Proliferation test (MTT assay)
(§3) In this test system, the number of live or dead cells after incubation with the test substance for 3 days is measured by means of the NADP-dependent reduction of a colorless substrate to give a deep red-colored final product, which occurs only in live cells.
(§4) Control experiments contain merely growth medium in place of the test substance. Quadruplicate determinations were set up for each test substance and for the controls. After incubation for 65 hours, 50 μl of an MTT solution (2.5 mg/ml in phosphate buffered saline) are added. In the presence of live cells MTT is reduced to a dark-red insoluble formazan pigment. […] The insoluble pigment is dissolved by addition of 100 μl of DMSO, and the extinction of the solution produced in this way is subsequently measured for each well in a Multiscan photometer 340 CC from Flow at a wavelength of 492 nm.

HT 29 cells = experiment: Proliferation test (MTT assay), HT 29; format: cell-based, human; conditions: HT 29, MTT, 72 hours
Procedure: as §1, §2, §3, §4

A 549 cells = experiment: Proliferation test (MTT assay), A 549; format: cell-based, human; conditions: A 549, MTT, 72 hours
Procedure: as §1, §2, §3, §4

tumor cell colonies = experiment: Stem Cell Test (inhibition of tumor cell colony formation in soft agar); format: cell-based; conditions: cell line not given; for IC50 Cont. incubation (colony formation in soft agar): continuous incubation
Procedure: as §1
This test system examines the ability of the test substance to inhibit the formation of tumor cell colonies in soft agar. The test was carried out by the method described by Hamburger and Salmon, with the modifications described below. Conditioned medium was replaced by McCoy 5A medium. […] The cells were incubated with various concentrations of the test substance at 37° C. for 1 hour. The cells were then washed twice with McCoy 5A medium and then plated out as the upper layer in a two-layer agar system in accordance with the Hamburger and Salmon method. Additional parallel experiments were carried out using a continuous incubation time, in which case various concentrations of the test substance were mixed with the upper agar layer before plating out the cells.
After this time, colonies with a diameter of (greater than) 60 μm were counted using an image analysis system (FAS II, Bausch and Lomb).
The IC50 for continuous and one-hour incubation was determined from the dose-effect plot (Tab. 2).

[1] = tested on: human and animal tumor cells; experiment: tumor-inhibiting effect in vitro; format: cell-based
E. coli = experiment: antibacterial effect in vitro, agar plate diffusion test, E. coli; format: cell-based; conditions: agar plate diffusion test (10 μl/test disk 6 mm in diameter)
Procedure: (§5) Examples of various organisms which emerge as sensitive to an inhibitory concentration of greater than 10 μg/ml are: E. coli, Staph. aureus, Strep. faecalis.

Strep. faecalis = experiment: antibacterial effect in vitro, agar plate diffusion test, Strep. faecalis; format: cell-based; conditions: agar plate diffusion test (10 μl/test disk 6 mm in diameter)
Procedure: as §5

[2] = tested on: Gram-positive and Gram-negative bacteria; experiment: antibacterial effect in vitro against Gram-positive and Gram-negative bacteria, agar plate diffusion test; format: cell-based
Procedure: as §5

stability = format: physicochemical
Staph. aureus = experiment: antibacterial effect in vitro, agar plate diffusion test, Staph. aureus; format: cell-based; conditions: agar plate diffusion test (10 μl/test disk 6 mm in diameter)
Procedure: as §5

solubility = format: physicochemical

Row | Substance | IC50 L1210 (concentration which just kills 50% of the cells) (L1210 cells) [µg/mL] | IC50 HT 29 (concentration which just kills 50% of the cells) (HT 29 cells) [µg/mL] | IC50 A 549 (concentration which just kills 50% of the cells) (A 549 cells) [µg/mL] | IC50 1 h incubation (colony formation in soft agar) (tumor cell colonies) | IC50 Cont. incubation (colony formation in soft agar) (tumor cell colonies) [µg/mL] | tumor-inhibiting effect in vitro [1] | inhibitory concentration, E. coli (E. coli) | inhibitory concentration, Strep. faecalis (Strep. faecalis) | antibacterial effect against Gram-positive and Gram-negative bacteria [2] | stability in solution (stability; in solution in the pH range from 3 to 9, especially from 5 to 8) | stability in the solid state (stability; solid state) | inhibitory concentration, Staph. aureus (Staph. aureus) | solubility in alkanes (solubility; alkanes) | solubility in ethyl acetate, methanol, acetone, DMSO and chloroform (solubility; ethyl acetate, methanol, acetone, DMSO and chloroform)
1 | 2,8,4'-tri-O-acetylsakyomicin E | 0.29 | 0.11 | 0.37 | above 1.0 μg/ml | 0.30 |  |  |  |  |  |  |  |  | 
2 | sakyomicin E | 0.50 | 0.08 | 0.30 | 3.0 µg/mL | 0.24 | tumor-inhibiting effect | greater than 10 μg/ml | greater than 10 μg/ml | exhibits an antibacterial effect | stable | stable | greater than 10 μg/ml | insoluble or only very slightly soluble | readily soluble
